Measurements as given in patent publication EP0920315B1, “TREATMENT OF UPPER AIRWAY ALLERGIC RESPONSES WITH A COMBINATION OF HISTAMINE RECEPTOR ANTAGONISTS” (SCHERING CORPORATION, priority 1996, dated 1998).
Where two headings read alike, the source gives them in different places.

Columns and labels:
Adult cats = test: Nasal airway resistance (NAR) after aerosolized Compound 48/80 in anesthetized cats; type: in vivo
From the text: Adult cats are anesthetized with intraperitoneal injections of sodium pentobarbital. The right femoral artery and vein are cannulated for measurement of blood pressure with a pressure transducer, and for the administration of drugs. The animals are paralyzed with intravenous gallamine triethiodide and subsequently mechanically ventilated with room air, using an animal ventilator. After isolation of the cervical […], a cuffed endotracheal tube is advanced rostrally into the posterior nasopharynx and inflated to form an air-tight seal, allowing continuous measurement of pressure changes within the nasal cavity. The right nasal airway is occluded with dental impression compound, and humidified air is passed through the left nasal airway at about 1.7 liters per minute. By means of pressure transducers, nasal airway pressure and insufflation pressure can be derived and electronically recorded.
Nasal airway resistance (NAR) is determined by dividing the pressure within the nasal cavity (expressed in centimeters of water) by the air flow rate (expressed in liters per minute). Measurements with 18 subject animals yield an average baseline NAR of 2.6.
The known histamine releaser "Compound 48/80" (the condensation product of N-methyl-p-methoxyphenethylamine with formaldehyde, sold by Sigma Chemical Company, St. Louis, Missouri, USA), as a 1.0 percent solution in 0.9 percent aqueous saline solution, is aerosolized into the air stream for 2 minutes to induce an increased NAR. This effect is used to study the decongestant effects of various test substances, administered to the animals intravenously 10 minutes prior to the introduction of Compound 48/80. These substances include 0.9 percent aqueous saline (normal saline "Vehicle"), phenylpropanolamine hydrochloride at 1.0 mg/Kg of the free drug, thioperamide maleate at 10 mg/Kg of the free drug and chlorpheniramine maleate at 0.8 mg/Kg of the free drug, all of the drug compounds being in solution in 0.9 percent aqueous saline.
The experiment of the preceding example is repeated, but the intravenous drugs are varying amounts of thioperamide (administered as the maleate), in solution together with a constant 0.8 mg/Kg of chlorpheniramine ("CPA," administered as the maleate).
The experiment of preceding Example 1 is repeated, but the intravenous drug administered is clobenpropit in varying amounts, either alone or in solution together with a constant 0.8 mg/Kg of chlorpheniramine ("CPA," administered as the maleate).
To test the statement in U.S. Patent 5,217,986 that verongamine itself has decongestant activity, an experiment similar to that of preceding Example 1, but with a different vehicle, is conducted. The following results are obtained:
The experiment of preceding Example 3 is conducted, using loratadine as the antihistaminic compound at 3 mg/Kg, administered in a solution ("Vehicle") which is 30 percent Dimethylsulfoxide, 40 percent Ethanol and 30 percent normal saline, and using thioperamide as the H3 receptor antagonist at 10 mg/Kg.

histamine H3 receptor = target: T1, histamine H3 receptor (Cavia porcellus, UniProt Q9JI35); test: Guinea pig brain membrane binding assay (displacement of radiolabeled N-alpha-methylhistamine, Korte et al.)
T1 construct: determined by a guinea pig brain membrane assay; from tissue; host or cells: guinea pig brain membranes
From the text: A particularly useful screening assay measures binding to sites in guinea pig brain membranes. This test is described in detail by Korte et al., "Characterization and Tissue Distribution of H3 Histamine Receptors in Guinea Pigs by N^α -Methylhistamine," in Biochemical and Biophysical Research Communications, Vol. 168, pages 979-986 (1990), and quantifies the displacement of bound radiolabeled N" - methylhistamine from tissues by candidate compounds. Results are expressed as "Ki" values, in nanoMolar (nM) units, which values can be considered as being dissociation constants for the H3 antagonist on the H3 receptor system, or an index of antagonist affinity for the receptor. The present inventors have evidence that decongestant activity in their invention for a given H3 antagonist concentration can be predicted to increase as the Ki value obtained from the assay for an antagonist decreases. In general, Ki values less than about 200 nM are considered necessary for an agent to be useful as an H3 antagonist in the invention.
The affinity of various histamine H3 receptor antagonists for binding sites is determined by a guinea pig brain membrane assay, according to the procedure of Korte et al., Biochemical and Biophysical Research Communications, Vol. 168, pages 979-986 (1990).

[1] = Example 1, i.v. 10 minutes prior to Compound 48/80, single drugs in 0.9 percent saline: thioperamide 10 mg/Kg, chlorpheniramine 0.8 mg/Kg, phenylpropanolamine 1.0 mg/Kg, NAR = cm of water / liters per minute, Vehicle 9.1

T1 sequence (Q9JI35 whole entry): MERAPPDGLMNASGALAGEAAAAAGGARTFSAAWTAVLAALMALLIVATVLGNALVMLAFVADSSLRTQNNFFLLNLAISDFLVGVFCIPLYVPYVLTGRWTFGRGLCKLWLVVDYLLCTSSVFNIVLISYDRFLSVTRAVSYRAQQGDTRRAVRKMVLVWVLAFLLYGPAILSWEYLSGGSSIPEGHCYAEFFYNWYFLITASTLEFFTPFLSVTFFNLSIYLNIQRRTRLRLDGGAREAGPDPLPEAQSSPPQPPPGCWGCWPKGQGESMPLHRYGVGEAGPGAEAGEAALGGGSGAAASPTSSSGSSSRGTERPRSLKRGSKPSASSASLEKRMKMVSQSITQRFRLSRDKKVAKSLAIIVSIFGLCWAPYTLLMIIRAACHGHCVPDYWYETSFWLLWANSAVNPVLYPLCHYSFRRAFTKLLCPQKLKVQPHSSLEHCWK

Structure (SMILES) | NAR (Adult cats; [1]) | Ki (histamine H3 receptor) [µM] | other results
CN(C)CCC(c1ccc(Cl)cc1)c1ccccn1 (stereo not drawn) [Chlorpheniramine, chlorpheniramine] | 6.0 |  | 
NC(=NCc1ccc(Cl)cc1)SCCCc1cnc[nH]1 [Clobenpropit, clobenpropit] |  | 0.0001 | NAR (Adult cats; Example 3, Clobenpropit 1.0 mg/Kg alone i.v., Vehicle 9.1): 8.5
CCOC(=O)N1CCC(=C2c3ccc(Cl)cc3CCc3cccnc32)CC1 [Loratadine, loratadine] |  |  | NAR (Adult cats; Example 6, loratadine 3 mg/Kg, thioperamide 10 mg/Kg, vehicle 30 percent Dimethylsulfoxide, 40 percent Ethanol, 30 percent normal saline, Vehicle 12.6): 10.2
CC(N)C(O)c1ccccc1 (stereo not drawn) [Phenylpropanolamine, phenylpropanolamine] | 2.9 |  | 
S=C(NC1CCCCC1)N1CCC(c2cnc[nH]2)CC1 [Thioperamide, thioperamide] | 6.7 | 0.012 | 
COc1ccc(C/C(=N\O)C(=O)NCCc2c[nH]cn2)cc1Br [Verongamine, verongamine] |  |  | Ki (histamine H3 receptor; guinea pig brain membranes, read-out: Ki): 0.28 µM; NAR (Adult cats; Example 5, Verongamine 10 mg/Kg, different vehicle, Vehicle 7.8): 7.3
